# Assay results from patent US10426755B2, “Methods for inhibiting cancer cells” (Chang Gung Memorial Hospital, Chiayi, priority 2015, dated 2019).
# Entries after “also recorded” stand apart in the source; their conditions may differ.
# Experiments:
# Type in all cases: cell-based
# [1] = system: chemotherapy-resistant colorectal cancer cells (HCT116); assay: XTT proliferation assay, colorectal cancer cells; conditions: 1, 5 and 10 μM DT, 1-3 days, FIG. 5
# Method: The prostate cancer cells were plated at a density of 10^3 or 3×10^3 per well, in a 96-well plate, in a medium containing 10% Fetal bovine serum (FBS) (Gibco®, commercially available from Life Technologies, USA). Once the prostate cancer cells were attached to the culture dish, the 10% FBS medium was replaced with a second 10% FBS medium and each of the prostate cancer cell line was treated with 1, 5, and 10 μM of DT respectively for 1-2 days. The absorbance was measured using XTT assay kit (commercially available from Roche, Switzerland) at 492 nm using an ELISA reader (Bio-Rad Laboratories, USA).
# An in vitro evaluation of the effect of DT on the chemotherapy-resistant colorectal cancer cells was performed. The chemotherapy-resistant colorectal cancer cells (HCT116) were obtained from Dr. K D Lee at Chang Gung Memorial Hospital, Chiayi, Taiwan. The colorectal cancer cells were cultured and plated according to the steps in Example 1 and treated with 0 (control), 1, 5 and 10 μM of DT, respectively for 1-3 days. The absorbance was measured using XTT assay kit at 492 nm using an ELISA reader.
# [2] = system: prostate cancer cells (hormone therapy-resistant PC3, DU145 and LNCaP); assay: Annexin V/PI flow cytometry apoptosis/necrosis, prostate cancer cells; conditions: 10 or 20 μM DT, 24-48 hours, vs PBS and DMSO vehicle (CT); time dependent; FIG. 6
# Method: (§1) The effect of DT on metastatic prostate cancer cells (hormone therapy-resistant PC3, DU145 and LNCaP); lung cancer cells (A549 and chemotherapy-resistant/metastatic H460); and breast cancer cells (MCF-7, tamoxifen-resistant MCF7 and MDA MB-231) was assessed.
# (§2) 1×10^6 Cancer cells were seeded in a 100-mm plate and cultured overnight. The cancer cells were treated with phosphate buffered saline (PBS), a Dimethyl sulfoxide (DMSO) vehicle (CT), 10 or 20 μM of DT for 24-48 hours, then collected and washed with cold PBS. The supernatant was removed by centrifugation and resuspended in FITC Annexin V binding buffer and Propidium iodide (PI) (Annexin V-FITC Apoptosis Detection Kit, commercially available from Strong Biotech Corporation, Taiwan). The suspended cancer cells were stained at room temperature, in the dark for 15 min and analyzed by the BD FACSCanto™ flow cytometry (Becton Dickinson, USA). The amount of early apoptosis, late apoptosis, and necrosis was measured as the percentage of annexin-V positive/PI negative (Q4 in the FACS images), annexin-V positive/PI positive (Q2 in the FACS images), and annexin-V negative/PI positive cells (Q1 in the FACS images), respectively. Normal cells are in […] of the FACS images.
# [3] = system: lung cancer cells (A549 and chemotherapy-resistant/metastatic H460); assay: Annexin V/PI flow cytometry apoptosis/necrosis, lung cancer cells; conditions: 10 or 20 μM DT, 24-48 hours, vs PBS and DMSO vehicle (CT); time dependent; FIG. 7
# Method: as §1, §2
# [4] = system: skp2 and downstream genes in HCT116 colon cancer cells; assay: skp2 and downstream gene mRNA expression, colon cancer cells; conditions: various concentrations of DT vs DMSO, FIG. 10 (g), (i)
# Method: It has been reported that skp2 plays an important role in the metastasis of cancer cells. An in vitro evaluation of the effect of DT on prostate cancer cell metastasis was performed, by measuring the mRNA expression of skp2 in the following prostate cancer cell lines: meatstatic DU145 cells (Panels i-j of FIG. 9), hormone therapy resistant and metastatic PC3 cells (Panel h of FIG. 9), and 22RV1 cells (Panels k-l of FIG. 9), A549 lung cancer cells (Panels (c)-(e) of FIG. 10), chemotherapy-resistant/metastatic H460 lung cancer cells (Panels (d) and (f) of FIG. 10), HCT116 colon cancer cells (Panels (g) and (i) of FIG. 10) and MCF7-tamoxifen resistant breast cancer cells (Panels (h) and (j) of FIG. 10) […].
# The cancer cells were treated with DMSO and various concentrations of DT.
# [5] = system: prostate cancer cells (metastatic DU145, PC3, 22RV1); assay: Cell invasion assay (transwell, Matrigel), prostate cancer cells; conditions: 5 or 10 μM DT, 3 days, vs control vehicle; FIG. 12 (a), (c), (e)
# Method: (§3) An in vitro evaluation of the effect of DT on lung cancer cells (A549 and chemotherapy resistant/metastatic H460), prostate cancer cells (metastatic DU145) and colorectal cancer cells (chemotherapy resistant HCT116) invasion and migration was performed, using cell invasion assay and cell migration assay.
# (§4) Cell Invasion Assay: cells of interest were treated with a control vehicle, 5 or 10 μM of DT and incubated for 3 days. 1×10^5 cells were placed into the upper chamber of transwell plates (8 μm) with membranes pre-coated with 20% Matrigel and the bottom chamber contained 600 μL media supplemented with 10% fetal bovine serum (FBS). The cells migrated to the bottom of the chamber were fixed, stained and counted.
# [6] = system: prostate cancer cells (metastatic DU145, PC3, 22RV1); assay: Cell migration (wound-healing) assay, prostate cancer cells; conditions: DT vs control vehicle, 24 h, dose dependent; FIG. 12 (b), (d), (f)
# Method: as §3
# Cell Migration Assay: In vitro wound-healing assay was used to assess cell motility in two dimensions. Cancer cells were plated overnight to achieve a subconfluent cell layer in 24-well plates. A scratch was made on the cell layer with a micropipette tip, and cultures were washed twice with serum-free medium to remove floating cells. Cancer cells were incubated in a culture medium containing DT or the control vehicle. Wound healing was visualized by comparing photographs taken at the time of adding the DT/control vehicle and 24 h later. Three experiments were done in quadruplicates.
# [7] = system: colorectal cancer cells (chemotherapy resistant HCT116); assay: Cell invasion assay (transwell, Matrigel), colorectal cancer cells; conditions: 5 or 10 μM DT, 3 days, vs control vehicle; FIG. 13 (a)
# Method: as §3, §4
# [8] = system: CCL2 in THP1/DU145 co-culture; assay: CCL2 ELISA, THP1/DU145 co-culture; conditions: DT-treated monocyte/DU145 co-culture medium; 5 or 10 μM DT, 24 hours; FIG. 15 (a)
# Method: (§5) As illustrated in Example 10, the production of CCL2 was inhibited by DT in both prostate cancer cells and macrophage, the effect of DT on monocyte/cancer cell co-culture and macrophage/cancer cell co-culture was examined using the invasion assay described in Example 9. • (a) THP1 monocytes, Raw264.7 macrophage, monocyte/prostate cancer co-culture and macrophage/prostate cancer co-culture were treated with a vehicle (DMSO), 5 or 10 μM DT for 24 hours, the cultured medium was collected and placed into the lower chamber of a transwell plate. • (b) Prostate cancer cells (PC3, DU145 and 22RV1) were placed in the cell invasion assay). The level of CCL2 in the invasion assay was measured by ELIZA method.
# [9] = system: CCL2 in THP1 cells/22RV1 co-culture; assay: CCL2 ELISA, THP1/22RV1 co-culture; conditions: DT-treated monocyte/22RV1 co-culture medium; 5 or 10 μM DT, 24 hours; FIG. 15 (b)
# Method: as §5
smiles,measurement,setting,value
"Cc1cccc2c3c(ccc12)C(=O)C1=C(OCC1C)C3=O (stereo not drawn) [DT, dihydroisotanshinone I]",inhibition of chemotherapy-resistant colorectal cancer cells,[1],effective in inhibiting chemotherapy-resistant colorectal cancer cells in a dose dependent manner
same,"early apoptosis, late apoptosis and necrosis, prostate cancer cells",[2],"more early apoptosis, late apoptosis and necrosis; also recorded: induced prostate cancer cell apoptosis/necrosis"
same,"early apoptosis, late apoptosis and necrosis, lung cancer cells",[3],"more early apoptosis, late apoptosis and necrosis; also recorded: induced lung cancer cell apoptosis/necrosis"
same,"mRNA expression of skp2 and its downstream genes, colorectal cancer",[4],"effectively inhibit mRNA expression of skp2 and its downstream genes; also recorded: reduces skps and its downstream genes, MMP2, MMP9 and E-cadherin"
same,prostate cancer cell motility (invasion assay),[5],reduced the motility and migration of prostate cancer cells
same,prostate cancer cell migration into the wounded area,[6],reduced the motility and migration of prostate cancer cells; also recorded: reduced prostate cancer cell migration into the wounded area
same,colorectal cancer cell motility (invasion assay),[7],reduced the motility of chemotherapy resistant colorectal cancer cells; also recorded: reduced the motility of colon cancer cells
same,concentration of CCL2,[8],significantly reduced
same,concentration of CCL2,[9],significantly reduced
